Patent US20050096224A1 (priority 2002, published 2005)

Tested on: G. pallida
Assay: Test A: control of G. pallida by oxamyl on potted potato plants
Assay type: in vivo, Globodera pallida
Conditions: serial small doses at 4-day, 7-day or 14-day intervals over the hatching period vs equivalent dose (3.5, 4.5 or 5.5 kg ai/ha) in one application at planting; 70 days; initial 10 or 50 eggs/g of soil; potato in pots
Description: G. pallida is the more pernicious pest of potatoes. Studies have been conducted with Composition A comprising oxamyl as described above.
The test units consisted of large diameter pots each containing one potato plant, planted in soil amended with eggs of G. pallida at either 24 cysts per pot (estimated to be about 10 eggs/g of soil) or 120 cysts per pot (estimated to be about 50 eggs/g of soil). These pest burdens represent a level of infestation that would require treatment in order to prevent crop damage and potential multiplication of the pest (10 eggs/g of soil) and substantial yield loss (50 eggs/g of soil).
Composition A was introduced into the test units diluted in a constant volume of water. […] The dose at each application was applied in the same volume of water and in equal incremental quantities. […] The number of cysts attached to the roots per gram of root mass (washed free of soil) was determined at 70 days (10 weeks) after commencement of the trial. […]

## CNC(=O)ON=C(SC)C(=O)N(C)C [oxamyl, N,N-dimethyl-2-methylcarbamoyloxyimino-2-(methylthio)acetamide]
  control of cyst production by G. pallida (number of cysts attached to the roots per gram of root mass): superior control
